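Protocol summary: plate cells (96-well), add compound at 5 concentrations, incubate 48 h, interpolate endpoints linearly. Here, GI50 denotes the concentration required for 50% inhibition of growth.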 Activity calls are given as the source filed them. Rule as the data show it: active = GI50 up to about 1.1 µM and inactive = higher.
Key:
Assay in all cases: growth of human tumour cells (NCI), 48 h
[1] = system: ACHN
[2] = system: NCI-H226
[3] = system: NCI-H522
[4] = system: SK-MEL-2
[5] = system: SF-539
[6] = system: OVCAR-4
[7] = system: CAKI-1
[8] = system: EKVX
[9] = system: HCT-15
[10] = system: DU-145
[11] = system: SK-OV-3
[12] = system: HCC 2998
[13] = system: K562
[14] = system: MCF7
[15] = system: HOP-92
[16] = system: PC-3
[17] = system: OVCAR-3
[18] = system: NCI-H460
[19] = system: Hs-578T
[20] = system: A498

| Structure (SMILES) | GI50 [1] | GI50 [2] | GI50 [3] | GI50 [4] | GI50 [5] | GI50 [6] | GI50 [7] | GI50 [8] | GI50 [9] [µM] | GI50 [10] | GI50 [11] | GI50 [12] | GI50 [13] | GI50 [14] | GI50 [15] | GI50 [16] | GI50 [17] | GI50 [18] | GI50 [19] | GI50 [20] |
| --- | --- | --- | --- | --- | --- | --- | --- | --- | --- | --- | --- | --- | --- | --- | --- | --- | --- | --- | --- | --- |
| COc1ccc(/N=N/c2c(-c3c(OC)cc4occc4c3OC)[nH]c(=O)c(C#N)c2C)cc1 | > 100 µM (inactive) | > 100 µM (inactive) | > 100 µM (inactive) | > 100 µM (inactive) | > 100 µM (inactive) | > 100 µM (inactive) | > 100 µM (inactive) | > 100 µM (inactive) | > 100 | > 100 µM (inactive) | > 100 µM (inactive) | > 100 µM (inactive) | > 100 µM (inactive) | > 100 µM (inactive) | > 100 µM (inactive) | > 100 µM (inactive) | > 100 µM (inactive) | > 100 µM (inactive) | > 100 µM (inactive) |  |
| Cc1nnc2sc(N/N=C/c3ccccc3)nn12 | > 100 µM (inactive) | > 100 µM (inactive) | > 100 µM (inactive) | > 100 µM (inactive) | > 100 µM (inactive) | > 100 µM (inactive) | > 100 µM (inactive) | > 100 µM (inactive) | > 100 | > 100 µM (inactive) | 27.4 µM (inactive) |  | > 100 µM (inactive) | > 100 µM (inactive) |  | > 100 µM (inactive) | > 100 µM (inactive) | > 100 µM (inactive) | > 100 µM (inactive) | > 100 µM (inactive) |
| Clc1ccc(-c2cc3nc4ccccc4nc3o2)cc1 | 25.4 µM (inactive) | > 100 µM (inactive) |  | > 100 µM (inactive) | 53.3 µM (inactive) | > 100 µM (inactive) | > 100 µM (inactive) | > 100 µM (inactive) | > 100 | > 100 µM (inactive) | 59.4 µM (inactive) | > 100 µM (inactive) | > 100 µM (inactive) | 64.4 µM (inactive) | 47.2 µM (inactive) | > 100 µM (inactive) | > 100 µM (inactive) | > 100 µM (inactive) | 15.7 µM (inactive) | > 100 µM (inactive) |
| N#Cc1c(NC(=S)Nc2ccc(Cl)cc2)sc2c1CCN(N1CCc3c(sc(NC(=S)Nc4ccc(Cl)cc4)c3C#N)C1)C2 | 12.7 µM (inactive) | 16.1 µM (inactive) | 18.2 µM (inactive) | 20.3 µM (inactive) | 16.8 µM (inactive) | 59.3 µM (inactive) | 63.8 µM (inactive) | 18.2 µM (inactive) | 24 | 37.8 µM (inactive) | > 100 µM (inactive) | 50.2 µM (inactive) | 22.4 µM (inactive) | 37.2 µM (inactive) |  | 37.4 µM (inactive) | 74.5 µM (inactive) | 32.4 µM (inactive) | 44.8 µM (inactive) | 15.7 µM (inactive) |
| c1ccc(C2=NN(c3nc4ccccc4s3)C3(CCCCC3)N2)nc1 | 29.9 µM (inactive) | 19.4 µM (inactive) | 26.5 µM (inactive) | 18.4 µM (inactive) | 46.3 µM (inactive) | 24.8 µM (inactive) | 29.4 µM (inactive) | 33.9 µM (inactive) | 32.8 | 35.7 µM (inactive) | > 100 µM (inactive) |  | 16.6 µM (inactive) | 21.6 µM (inactive) | 31.7 µM (inactive) | 15.8 µM (inactive) | 16.7 µM (inactive) | 15.2 µM (inactive) | 31.7 µM (inactive) | 32.2 µM (inactive) |
| COC1=C2C=[N+](C)C3C(=C2C=CC1OC)Cc1cc2c(cc13)OCO2 (centres undefined) |  | 15.4 µM (inactive) | 4.32 µM (inactive) | 15.5 µM (inactive) | 11.8 µM (inactive) | 10.5 µM (inactive) | 15.8 µM (inactive) | 17.9 µM (inactive) | 17.7 | 14.5 µM (inactive) | 15.1 µM (inactive) |  | 6.93 µM (inactive) | 9.77 µM (inactive) | 22.7 µM (inactive) | 16.5 µM (inactive) | 3.75 µM (inactive) |  | 13.7 µM (inactive) | 43.5 µM (inactive) |
| O=C1N2CCN=C2c2ccccc2C1(O)c1ccccc1 (centres undefined) | > 100 µM (inactive) | > 100 µM (inactive) |  |  | > 100 µM (inactive) | > 100 µM (inactive) | > 100 µM (inactive) | > 100 µM (inactive) | > 100 | > 100 µM (inactive) |  | > 100 µM (inactive) | > 100 µM (inactive) | > 100 µM (inactive) | > 100 µM (inactive) | > 100 µM (inactive) |  | > 100 µM (inactive) | > 100 µM (inactive) | > 100 µM (inactive) |
| O=C1CSC(c2ccccc2)N1c1ccc(-c2ccc(-n3c(-c4ccccc4)nc4ccccc4c3=O)cc2)cc1 (centres undefined) | 53 µM (inactive) |  | 47.8 µM (inactive) | 25.5 µM (inactive) |  | 30.5 µM (inactive) | > 100 µM (inactive) | 55.3 µM (inactive) | 29.2 | 85.1 µM (inactive) | > 100 µM (inactive) | 34.8 µM (inactive) | 33.3 µM (inactive) | 35.1 µM (inactive) | > 100 µM (inactive) | 37.9 µM (inactive) | 46.5 µM (inactive) | 46 µM (inactive) | > 100 µM (inactive) | > 100 µM (inactive) |
| CN1CCN(c2ccc3nc(C4=C(O)C(=O)c5c(nc(CCl)n5C)C4=O)[nH]c3n2)CC1 | 10.3 µM (inactive) | 14.7 µM (inactive) | 1.56 µM (inactive) | 10 µM (inactive) | > 50 µM (inactive) | 15.7 µM (inactive) | 13.5 µM (inactive) | 21.7 µM (inactive) | 38 | 10.1 µM (inactive) | 10.5 µM (inactive) | 5.89 µM (inactive) | 24.2 µM (inactive) | 8.89 µM (inactive) |  | 16.9 µM (inactive) | 10.4 µM (inactive) | 20.2 µM (inactive) | 18.7 µM (inactive) | 11.5 µM (inactive) |
| O=c1c2c3c(sc2nc2n1N=CN(c1ccc(Cl)cc1)C2)CCCC3 | 75 µM (inactive) | 42.3 µM (inactive) | 10.5 µM (inactive) | 43.2 µM (inactive) |  | 52.6 µM (inactive) | 23.8 µM (inactive) | 93.8 µM (inactive) | 19.7 | 21.3 µM (inactive) | > 100 µM (inactive) | 2.26 µM (inactive) | 19.3 µM (inactive) | > 100 µM (inactive) | 8.47 µM (inactive) | 15.1 µM (inactive) | 19.4 µM (inactive) | 38 µM (inactive) | 3.93 µM (inactive) | 4.12 µM (inactive) |
| c1ccc([P+](c2ccccc2)(c2ccccc2)C2c3ccccc3-c3ccccc32)cc1 | 2.35 µM (inactive) | 1.95 µM (inactive) | 2.19 µM (inactive) | 1.71 µM (inactive) | 2.75 µM (inactive) |  | 3.46 µM (inactive) |  | 3.01 | 2.87 µM (inactive) | 1.33 µM (inactive) | 2.6 µM (inactive) | 1.9 µM (inactive) | 2.25 µM (inactive) |  | 1.47 µM (inactive) | 1.87 µM (inactive) | 1.83 µM (inactive) | 2.21 µM (inactive) | 1.75 µM (inactive) |
| CC(O)CNC(=O)Nc1c(C(F)(F)F)cc(-c2ccccc2)[nH]c1=O (centres undefined) | > 100 µM (inactive) | > 100 µM (inactive) | > 100 µM (inactive) | > 100 µM (inactive) |  | > 100 µM (inactive) | > 100 µM (inactive) | > 100 µM (inactive) | > 100 | > 100 µM (inactive) | > 100 µM (inactive) | > 100 µM (inactive) | > 100 µM (inactive) | > 100 µM (inactive) | > 100 µM (inactive) | > 100 µM (inactive) | > 100 µM (inactive) | > 100 µM (inactive) | > 100 µM (inactive) | > 100 µM (inactive) |
| COc1ccc(N2C(=O)C3c4[nH]c5ccc(OCc6ccccc6)cc5c4C4CCC(C(C)(C)C)CC4C3C2=O)cc1 (centres undefined) | > 100 µM (inactive) | > 100 µM (inactive) | > 100 µM (inactive) | > 100 µM (inactive) | 46 µM (inactive) | 29.8 µM (inactive) | > 100 µM (inactive) | > 100 µM (inactive) | > 100 | > 100 µM (inactive) | > 100 µM (inactive) | > 100 µM (inactive) | > 100 µM (inactive) | 85.3 µM (inactive) |  | > 100 µM (inactive) | 57.5 µM (inactive) | > 100 µM (inactive) | 54.2 µM (inactive) | > 100 µM (inactive) |
| NS(=O)(=O)c1ccc(NCc2nc3ccccc3[nH]2)cc1 | > 100 µM (inactive) | > 100 µM (inactive) | > 100 µM (inactive) | > 100 µM (inactive) | > 100 µM (inactive) | > 100 µM (inactive) | > 100 µM (inactive) | > 100 µM (inactive) | > 100 | > 100 µM (inactive) | > 100 µM (inactive) |  |  | > 100 µM (inactive) | > 100 µM (inactive) | > 100 µM (inactive) | > 100 µM (inactive) | > 100 µM (inactive) | > 100 µM (inactive) | > 100 µM (inactive) |
| CCOc1cc(C2CC(c3ccc(NS(=O)(=O)c4cc([N+](=O)[O-])ccc4C)cc3)=NN2S(=O)(=O)c2cc([N+](=O)[O-])ccc2C)ccc1O (centres undefined) | 39.6 µM (inactive) | 31.6 µM (inactive) | 22.9 µM (inactive) | 22.6 µM (inactive) | 33.7 µM (inactive) | 38.6 µM (inactive) | 42.9 µM (inactive) | 22.1 µM (inactive) | 39 | 43.8 µM (inactive) | 39.9 µM (inactive) |  | 35.1 µM (inactive) | 31.9 µM (inactive) | 17.5 µM (inactive) | 32.7 µM (inactive) | 23.4 µM (inactive) |  | 42.4 µM (inactive) | 2.44 µM (inactive) |
